Test results as given in patent US20080003184A1, “Superparamagnetic Gadolinium Oxide Nanoscale Particles and Compositions Comprising Such Particles” (priority 2004, published 2008).
Where two headings read alike, the source gives them in different places.

Assays:
[1] = Relaxation time measurements (T1, T2 relaxivity) in H2O, 1.5 T scanner; format: physicochemical; conditions: 22-23° C.
Procedure: (§1) Samples of Gd2O3-DEG from Example 1 (with an average particle size of about 5 nm and a particle size range from about 1 to 15 nm) and Gd-DTPA (Magnevist®) were prepared in 10 mm NMR test tubes with H2O at 9 different Gd concentrations from […]. At measurement the test tubes were immersed in a bowl with saline at 22-23° C., which was the temperature of the scanner room.
(§2) T1 and T2 relaxation times were measured with a 1.5 T Philips Achieva whole body scanner using the head coil. A 2D mixed multi-echo SE interleaved with multi-echo IR sequence was used for the measurements [kleef_mrm—1987]. Imaging time parameters were varied to minimise the standard deviations in relaxation time calculations: TE=30 ms, TR (SE)=500 ms, TI=150 ms, and TR (IR)=1150 ms (set 1); TE=50 ms, TR (SE)=760 ms, TI=370 ms, and TR (IR)=2290 ms (set 2). Other MR parameters were: FOV=23 cm, slice thickness=7 mm, number of echoes=4.
In addition, samples of Gd2O3-DEG and Resovist® were prepared and tested under the same conditions as above. There were 6 different Gd and Fe concentrations between 0.1 and 1.5 mM. Resovist® is based on ferrocarbotran colloidal sol of superparamagnetic iron oxide nanoparticles (SPIO). The particles have a hydrodynamic diameter of 60 nm on an iron core of 4 nm. […] Accordingly, Gd2O3-DEG particles enable a contrast agent with complementary properties to those based on SPIO.

[2] = Magnevist 0.1 mmol/kg, cited from earlier work
THP-1 cells = test: Monocyte studies: incubation, washing, T1/T2 measurement; format: cell-based; conditions: 0.1-0.9 mM Gd, 2 h or 8 h at 37° C., washed twice
Procedure: For monocyte experiments, THP-1 cells were cultured in RPMI 1640 medium with 10% fetal calf serum (GIBCO, Invitrogen, Carlsbad, Calif., USA) with additions of L-glutamate and penicillin/streptomycin solution (Invitrogen). Cells were counted and found 97% viable. Cells were treated with Gd2O3-DEG or Gd-DTPA in concentrations 0.1, 0.3, 0.6, and 0.9 mM. Cells of one well were left untreated. A control series was prepared of cell culture medium only with the different concentrations of Gd2O3-DEG particles. Two plates of 24 wells each were prepared as described above; one was incubated with the Gd2O3-DEG and Gd-DTPA for 2 h and the other one for 8 h at 37° C. After incubation cells were transferred to Falcon tubes and washed twice with medium and centrifugated for 8 minutes at 1100 rpm.

[3] = Signal intensity from first echo of spin echo sequence (TE=30 ms, TR=500 ms); format: physicochemical
Procedure: as §1, §2
At higher concentrations (>0.9 mM) the strong T2 effect attenuated the signal for the nanoparticle samples. That is, the Gd2O3 sample reached the signal intensity peak at lower concentrations (0.6 mM) compared to the Gd-DTPA signal intensity that peaked at approximately 1.2 mM in this sequence.
In addition, samples of Gd2O3-DEG and Resovist® were prepared and tested under the same conditions as above. There were 6 different Gd and Fe concentrations between 0.1 and 1.5 mM. […]

## O=C([O-])CN(CCN(CC(=O)[O-])CC(=O)O)CCN(CC(=O)[O-])CC(=O)O.[Gd+3] [Gd-DTPA]
[1]
  r1 relaxivity constant: 4.86 ± 0.08 mM⁻¹ s⁻¹
  r2 relaxivity constant: 5.53 ± 0.14 mM⁻¹ s⁻¹
[2]; 3 minutes after injection
  detected plasma concentration of Gd: 0.6 mM
[2]; 60 minutes after injection
  detected plasma concentration of Gd: 0.24 mM
THP-1 cells
  Presence with cells after the washing procedure: not present in the cell suspension after the washing
[3]
  Gd concentration at signal intensity peak: approximately 1.2 mM
